Paper PMC8693659 (RSC Advances, 2021)

Target: SYK (Homo sapiens, UniProt P43405)
Assay: In vitro kinase inhibition assay
Assay type: biochemical
Conditions: for remained SYK activities: inhibitor at 5 μM

IC50 [µM] | remained SYK activities [%] | Compound
1.72 | 37.0 ± 2.3 | Cc1coc2c1C(=O)C(=O)c1c-2ccc2c(C)cccc12 [TanI, tanshinone I]
3.2 | 44.7 ± 3.3 | Cc1coc2c1C(=O)C(=O)c1c-2ccc2c1CCCC2(C)C [TanIIA, tanshinoneIIA]
